# Key:
# [1] = system: human adult skin fibroblast; test: iPS cell colony induction, cell cycle arresting agent treatment (Example 3); format: cell-based; conditions: 2 days, 22nd day of culture
# Description: According to the same manner as that of Example 1-(2), gene transfer was carried out (day 0 of culturing), provided that a plate was washed with PBS containing 1.5% human serum albumin, and centrifugation after cell seeding was not carried out. In addition, gene transfer was carried out in a combination of a retrovirus vector DON5-am-OCT4-IR-SOX2, DON5-am-LIN28-IR-NANOG, or DON5-am-KLF4.
# On the seventh day of culture, according to the same manner as that of Example 1-(4), the gene-introduced cell was seeded on a feeder cell, and culturing was continued.
# In addition, the agent was not added to a control. After culturing for 2 days, the medium was exchanged with a medium for ES cells, and culturing was continued until the 22nd day of culture.
# [2] = system: human adult skin fibroblast; test: iPS cell colony induction, cell cycle arresting agent-2, Purvalanol A with or without Y27632 (Example 27); format: cell-based; conditions: 26th day of culture, N=2
# Description: Regarding Purvalanol A being a Cell cycle arresting agent, for which the effect of promoting induction of a pluripotent stem cell was confirmed in Example 3, extension of the substance treatment term thereof and a combination use thereof with Y-27632 [(R) (+)-trans-4-(1-aminoethyl)-N-(4-pyridyl)cyclohexanecarboxyamide dihydrochloride] which is one of substances suppressing cell death were studied.
# According to the same manner as that of Example 3-(2), gene transfer was carried out (day 0 of culturing), provided that the virus solution was added to each well by each 2 mL, by diluting 10-fold a solution obtained by mixing three kinds of vectors at an equal amount, with 10F-DMEM.
# (§1) On the sixth day of culture, according to the same manner as that of Example 5-(4), the gene-introduced cell was seeded on a feeder cell, and culturing was continued.
# After completion of a substance treatment term, the medium was exchanged with a medium for ES cells, and culturing was continued until the 26th day of culture. […] Regarding the condition under which substance treatment for 4 days to 6 days was carried out, the medium was exchanged at two days interval also during a substance treatment term, and the substance was added at the same concentration every time.
# (§2) In addition, the number in the Table indicates an average value of N=2.
# [3] = system: human adult skin fibroblast; test: iPS cell colony induction, cell cycle arresting agent-3, NU6140 (Example 28); format: cell-based; conditions: 2 days, 28th day of culture, N=2
# Description: In induction culturing of a pluripotent stem cell, substance treatment with […] (manufactured by ALEXIS BIOCHEMICALS) which is one of Cell cycle arresting agents was carried out, and influence on an induction efficiency was studied.
# According to the same manner as that of Example 1-(1), immobilization of Retronectin on a culture plate was carried out, provided that a non-treatment 12-well culture plate (manufactured by Becton, Dickinson and Company) was used, and each 1 mL of a Retronectin solution was added to each well.
# According to the same manner as that of Example 4-(2), gene transfer was carried out (day 0 of culturing), provided that each 1 mL of the virus solution was added to each well, by diluting 100-fold a solution obtained by three kinds of vectors at an equal amount, with 10F-DMEM.
# as §1
# (§3) In addition, in a control, the substance was not added. After culturing for 2 days, the medium was exchanged with a medium for ES cells, and culturing was continued to the 28th day of culture.
# as §2
# [4] = system: human adult skin fibroblast; test: iPS cell colony induction, DHCP and GM (Example 29); format: cell-based; conditions: 10 μM, 2 days; 26th day of culture; N=2
# Description: In induction culturing of a pluripotent stem cell, substance treatment with a compound DHCP produced by heating a uronic acid compound derived from an animal and a plant (International Publication No. 98/13328 pamphlet), and GM in which glutathione is added to DHCP (International Publication No. 98/39291 pamphlet) was carried out, and influence on an induction efficiency was studied.
# According to the same manner as that of Example 4-(2), gene transfer was carried out (day 0 of culturing), provided that each 1 mL of the virus solution was added to each well, by diluting 10-fold a solution obtained by three kinds of vectors at an equal amount, with 10F-DMEM.
# as §1, §3, §2
# [5] = system: human adult skin fibroblast; test: iPS cell colony induction, methylation inhibitor treatment (Example 1); conditions: 5-aza-2′-deoxycytidine 1 μM for 2 days in medium for ES cells, 28th day of culture
# Description: Each 700 μL of the virus solution prepared in Preparation Example 2 was added to each well of the Retronectin-immobilized culture plate prepared in (1) in a combination of Table 3, respectively, and this was centrifuged at 32° C. and 2,000×g for 2 hours.
# Thereafter, the supernatant was removed from each well, washed with PBS once, and each 2 mL of human adult skin fibroblast (manufactured by Lonza) suspended in 10F-DMEM to 5×10^4 cells/mL was seeded on each well. After centrifugation at 32° C. and 500×g for 10 minutes, culturing was initiated in a CO2 incubator at 37° C. (0 day of culture).
# Gene transfer for the second time was carried out on the first day of culture. Each 700 μL of virus solutions prepared by Preparation Example 2 were mixed in a combination of Table 3, and polybrene (hexadimethrine.bromide; manufactured by Aldrich) was added to a final concentration of 8 μg/mL to prepare a retrovirus vector mixed solution. The supernatant was removed from a culture plate which had been cultured in (2), and this retrovirus vector mixed solution was added. After culturing in a CO2 incubator at 37° C. for 4 hours, 2 mL of 10F-DMEM was added. After further culturing for 2 days, the supernatant was removed, 2 mL of 10F-DMEM was added, and culturing was continued.
# The gene-introduced cell on the seventh day of culture made in (3) was recovered, and suspended in 10F-DMEM to 5×10^4 cells/mL. 10 mL of this suspension was seeded on the feeder cell, and culturing was continued.
# On the eighth day of culture (after culturing for 1 day from seeding on the feeder cell), the supernatant was removed, and 10 mL of DMEM not containing serum (0F-DMEM: obtained by removing bovine fetal serum from 10F-DMEM) was added under Protein starvation treatment conditions. […]
# The number of a pluripotent stem cell (iPS cell) under each condition of protein starvation of treatment or methylation inhibitor treatment under each of conditions A, B and C was counted on the 28th day of culture.
smiles,measurement,setting,value
CC(C)[C@H](CO)Nc1nc(Nc2cccc(Cl)c2)c2ncn(C(C)C)c2n1 [Purvalanol A],Number of iPS cell colonies,[1]; 0.1 μM,28
same,Number of iPS cell colonies,[1]; 0.5 μM,19
same,Number of iPS cell colonies,[1]; 2 μM,19
same,Number of iPS cell colonies,"[2]; Condition A: 2 μM Purvalanol A, 2 days",26.0
same,Number of iPS cell colonies,"[2]; Condition B: 2 μM Purvalanol A, 4 days",25.5
same,Number of iPS cell colonies,"[2]; Condition C: 2 μM Purvalanol A, 6 days",18.5
"NC(=O)NO [Hydroxyurea, hydroxyurea]",Number of iPS cell colonies,[1]; 10 μM,26
same,Number of iPS cell colonies,[1]; 100 μM,13
CCN(CC)C(=O)c1ccc(Nc2nc(OCC3CCCCC3)c3[nH]cnc3n2)cc1 [NU6140],Number of iPS cell colonies,[3]; 0.1 μM,22.5
same,Number of iPS cell colonies,[3]; 1 μM,28.0
"O=C1C=CC(O)C1O (centres unmarked) [DHCP, 4,5-dihydroxy-2-cyclopentene-1-one]",Number of iPS cell colonies,[4],23.5
"Nc1ncn([C@H]2C[C@H](O)[C@@H](CO)O2)c(=O)n1 [Methylation inhibitor, 5-aza-2′-deoxycytidine]",Number of iPS cell colonies,[5]; retrovirus combination Condition A,11
same,Number of iPS cell colonies,[5]; retrovirus combination Condition B,25
same,Number of iPS cell colonies,[5]; retrovirus combination Condition C,8

# — patent US9238797B2, “Method for production of pluripotent stem cell” (TAKARA BIO INC., priority 2008, dated 2016)
